Laboratory results reported in PubChem BioAssay AID330 (DTP/NCI, 2004).
Several values for one entry are separate records, joined by “and”; a condition that tells them apart may be missing. Equal values may be shown once. Toxic doses and inconclusive results are not listed. How the source made its calls: active means survival T/C of 150% or more; inactive means T/C below 125% in these data.

System: P388 leukemia ip, CD2F1 mice, survival T/C
Test: NCI In Vivo Anticancer Drug Screen. Data for tumor model P388 Leukemia (intraperitoneal) in CD2F1 (CDF1) mice
Conditions: endpoint: median survival time, higher = longer survival
Procedure, shortened: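 Mice carrying the transplanted tumor received test compound or vehicle. Survival was recorded in each group, and the value is the treated-group measurement divided by that of the vehicle-treated control group.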

[1] = dose: 25.0 mg/kg/injection, schedule: Q01DX009 (ip), vehicle: saline with Tween-80
[2] = dose: 50.0 mg/kg/injection, schedule: Q01DX009 (ip), vehicle: saline with Tween-80
[3] = dose: 100.0 mg/kg/injection, schedule: Q01DX009 (ip), vehicle: saline with Tween-80
[4] = dose: 200.0 mg/kg/injection, schedule: Q01DX009 (ip), vehicle: saline with Tween-80
[5] = dose: 50.0 mg/kg/injection, schedule: Q01DX005 (ip), vehicle: saline with Tween-80
[6] = dose: 100.0 mg/kg/injection, schedule: Q01DX005 (ip), vehicle: saline with Tween-80
[7] = dose: 200.0 mg/kg/injection, schedule: Q01DX005 (ip), vehicle: saline with Tween-80
[8] = dose: 50.0 mg/kg/injection, schedule: Q01DX005 (ip), vehicle: saline
[9] = dose: 100.0 mg/kg/injection, schedule: Q01DX005 (ip), vehicle: saline
[10] = dose: 200.0 mg/kg/injection, schedule: Q01DX005 (ip), vehicle: saline
[11] = dose: 50.0 mg/kg/injection, schedule: Q01DX005 (ip), vehicle: Klucel (hydroxypropylcellulose) (HPC)

Measured: T/C

CC1=CC(=O)[C@@H](O)[C@@]2(C)C1C[C@H]1OC(=O)[C@H](C/C=C(/C)C(C)C)[C@H]3C(C)C(O)C4(O)OC[C@@]31C42 (stereo partly drawn)
inactive: dose: 1.0 mg/kg/injection, schedule: Q01DX005 (ip), vehicle: saline with Tween-80 100 % of control | dose: 2.0 mg/kg/injection, schedule: Q01DX005 (ip), vehicle: saline with Tween-80 96 % of control | dose: 4.0 mg/kg/injection, schedule: Q01DX005 (ip), vehicle: saline with Tween-80 95 % of control | dose: 8.0 mg/kg/injection, schedule: Q01DX005 (ip), vehicle: saline with Tween-80 101 % of control

O=C(COc1ccc([N+](=O)[O-])cc1)Nc1cccnc1
inactive: dose: 50.0 mg/kg/injection, schedule: Q04DX003 (ip), vehicle: saline with Tween-80 98 % of control | dose: 100.0 mg/kg/injection, schedule: Q04DX003 (ip), vehicle: saline with Tween-80 98 % of control | dose: 200.0 mg/kg/injection, schedule: Q04DX003 (ip), vehicle: saline with Tween-80 99 % of control

CCCCCCCCCCCCCCCCCCOS(=O)(=O)O (tested in a mixture with another compound)
inactive: dose: 50.0 mg/kg/injection, schedule: Q01DX009 (ip), vehicle: saline 102 % of control | dose: 100.0 mg/kg/injection, schedule: Q01DX009 (ip), vehicle: saline 104 % of control | dose: 200.0 mg/kg/injection, schedule: Q01DX009 (ip), vehicle: saline 104 % of control

CC(C)(C)c1cc(C=O)cc(C(C)(C)C)c1O
inactive: [1] 99 % of control | [2] 100 % of control | [3] 96 % of control | [4] 91 % of control

O=C1c2ccccc2-c2c1c1ccccc1c(=O)n2Cc1ccco1
inactive: dose: 0.75 mg/kg/injection, schedule: Q01DX005 (ip), vehicle: saline with Tween-80 100 % of control | dose: 1.5 mg/kg/injection, schedule: Q01DX005 (ip), vehicle: saline with Tween-80 100 % of control | dose: 3.0 mg/kg/injection, schedule: Q01DX005 (ip), vehicle: saline with Tween-80 103 % of control

CCn1cc(C(=O)O)c(=O)c2cc3c(cc21)OCO3
inactive: dose: 60.0 mg/kg/injection, schedule: Q01DX005 (ip), vehicle: Klucel (hydroxypropylcellulose) (HPC) 100 % of control | dose: 120.0 mg/kg/injection, schedule: Q01DX005 (ip), vehicle: Klucel (hydroxypropylcellulose) (HPC) 103 % of control | dose: 240.0 mg/kg/injection, schedule: Q01DX005 (ip), vehicle: Klucel (hydroxypropylcellulose) (HPC) 100 % of control

CC(C(=O)O)N1C(=O)c2ccccc2C1=O (stereo not drawn)
inactive: dose: 4.0 mg/kg/injection, schedule: Q01DX009 (ip), vehicle: water 105 % of control | dose: 8.0 mg/kg/injection, schedule: Q01DX009 (ip), vehicle: water 100 % of control | dose: 16.0 mg/kg/injection, schedule: Q01DX009 (ip), vehicle: water 103 % of control | dose: 32.0 mg/kg/injection, schedule: Q01DX009 (ip), vehicle: water 100 % of control | dose: 64.0 mg/kg/injection, schedule: Q01DX009 (ip), vehicle: water 99 % of control

COc1ccc(CN2CC(C)N(N=Cc3c4c(O)c5c(O)c(C)c6c(c5c3O)C(=O)C(C)(O/C=C/C(OC)C(C)C(OC(C)=O)C(C)C(O)C(C)C(O)C(C)/C=C/C=C(\C)C(=O)N4)O6)C(C)C2)cc1 (stereo not drawn)
inactive: [1] 110 % of control | [2] 103 % of control and 116 % of control | dose: 50.0 mg/kg/injection, schedule: Q01DX009 (ip), vehicle: suspension in saline 112 % of control | [3] 113 % of control and 119 % of control | dose: 100.0 mg/kg/injection, schedule: Q01DX009 (ip), vehicle: suspension in saline 108 % of control | [4] 119 % of control | dose: 200.0 mg/kg/injection, schedule: Q01DX009 (ip), vehicle: suspension in saline 91 % of control

CCOP(=O)(OCC)c1ncn(Cc2ccccc2)c1N
inactive: dose: 100.0 mg/kg/injection, schedule: Q01DX001 (ip), vehicle: saline 97 % of control | dose: 200.0 mg/kg/injection, schedule: Q01DX001 (ip), vehicle: saline 104 % of control | dose: 400.0 mg/kg/injection, schedule: Q01DX001 (ip), vehicle: saline 101 % of control

CCCCCN(CCCCC)CC(=O)O[C@H]1C[C@H]2CC[C@@]1(C)C2(C)C
inactive: [5] 103 % of control | [6] 105 % of control | [7] 107 % of control

O=C(O)c1ccccc1-c1c2ccc(=Nc3ccccc3)cc-2oc2cc(Nc3ccc(S(=O)(=O)O)cc3)ccc12
inactive: [8] 94 % of control | [9] 98 % of control | [10] 111 % of control

Nc1nc(=O)[nH]s1
inactive: dose: 6.25 mg/kg/injection, schedule: Q01DX009 (ip), vehicle: saline with Tween-80 98 % of control | dose: 12.5 mg/kg/injection, schedule: Q01DX009 (ip), vehicle: saline with Tween-80 87 % of control and 94 % of control | [3] 95 % of control | [4] 90 % of control

CC(C)CCC[C@@H](C)[C@H]1CC[C@H]2[C@@H]3CC[C@H]4C[C@H](N)CC[C@]4(C)[C@H]3CC[C@]12C
inactive: dose: 12.5 mg/kg/injection, schedule: Q01DX005 (ip), vehicle: Klucel (hydroxypropylcellulose) (HPC) 100 % of control | dose: 25.0 mg/kg/injection, schedule: Q01DX005 (ip), vehicle: Klucel (hydroxypropylcellulose) (HPC) 93 % of control | [11] 112 % of control and 97 % of control

Cn1c(=O)c2ccccc2c2ccccc21
inactive: [2] 96 % of control | [3] 96 % of control | [4] 95 % of control | dose: 400.0 mg/kg/injection, schedule: Q01DX009 (ip), vehicle: saline with Tween-80 99 % of control

CC(=O)CC(=O)C1C(S[As](C)C)CC2C3CCC4=CC(=O)C=CC4(C)C3C(=O)CC21C (stereo not drawn)
inactive: [11] 102 % of control | dose: 100.0 mg/kg/injection, schedule: Q01DX005 (ip), vehicle: Klucel (hydroxypropylcellulose) (HPC) 91 % of control and 94 % of control | dose: 200.0 mg/kg/injection, schedule: Q01DX005 (ip), vehicle: Klucel (hydroxypropylcellulose) (HPC) 94 % of control and 98 % of control

O=[N+]([O-])c1nccn1CC(O)CCN1CCOCC1 (stereo not drawn)
inactive: dose: 25.0 mg/kg/injection, schedule: Q01DX005 (ip), vehicle: saline 110 % of control | [8] 102 % of control | [9] 102 % of control | [10] 106 % of control | dose: 400.0 mg/kg/injection, schedule: Q01DX005 (ip), vehicle: saline 101 % of control

Cc1cc(NCc2ccccc2)cc(=O)[nH]1
inactive: dose: 100.0 mg/kg/injection, schedule: Q01DX001 (ip), vehicle: saline with Tween-80 95 % of control | dose: 200.0 mg/kg/injection, schedule: Q01DX001 (ip), vehicle: saline with Tween-80 89 % of control | dose: 400.0 mg/kg/injection, schedule: Q01DX001 (ip), vehicle: saline with Tween-80 87 % of control

CCN(CC)CCNc1cccc2oc3ccc(OS(=O)(=O)c4ccc(C)cc4)cc3c(=O)c12
inactive: [5] 97 % of control | [6] 100 % of control | [7] 102 % of control

O=C(O)CN1C(=O)C=CC1=O
inactive: dose: 3.12 mg/kg/injection, schedule: Q01DX009 (ip), vehicle: saline 90 % of control | dose: 6.25 mg/kg/injection, schedule: Q01DX009 (ip), vehicle: saline 101 % of control | dose: 12.5 mg/kg/injection, schedule: Q01DX009 (ip), vehicle: saline 101 % of control and 86 % of control

Cc1sc2ccc3ccccc3c2[n+]1C
inactive: dose: 15.0 mg/kg/injection, schedule: Q01DX005 (ip), vehicle: saline 100 % of control and 106 % of control and 95 % of control | dose: 30.0 mg/kg/injection, schedule: Q01DX005 (ip), vehicle: saline 104 % of control and 108 % of control and 118 % of control | dose: 60.0 mg/kg/injection, schedule: Q01DX005 (ip), vehicle: saline 116 % of control | dose: 120.0 mg/kg/injection, schedule: Q01DX005 (ip), vehicle: saline 91 % of control and 114 % of control

COC(CN1C(=O)CSC1=S)OC
inactive: [2] 114 % of control | [3] 117 % of control | [4] 117 % of control

CC(C)=CCC1(O)C(=O)c2ccccc2C1(O)C(=O)O (stereo not drawn)
inactive: dose: 25.0 mg/kg/injection, schedule: Q01DX009 (ip), vehicle: Klucel (hydroxypropylcellulose) (HPC) 101 % of control | dose: 50.0 mg/kg/injection, schedule: Q01DX009 (ip), vehicle: Klucel (hydroxypropylcellulose) (HPC) 100 % of control | dose: 100.0 mg/kg/injection, schedule: Q01DX009 (ip), vehicle: Klucel (hydroxypropylcellulose) (HPC) 107 % of control | dose: 200.0 mg/kg/injection, schedule: Q01DX009 (ip), vehicle: Klucel (hydroxypropylcellulose) (HPC) 99 % of control

OCC(O)C(O)C(O)C(/C=N\Nc1ccccc1)=N/Nc1ccccc1 (stereo not drawn)
inactive: dose: 100.0 mg/kg/injection, schedule: Q04DX002 (ip), vehicle: saline 100 % of control | dose: 200.0 mg/kg/injection, schedule: Q04DX002 (ip), vehicle: saline 97 % of control | dose: 400.0 mg/kg/injection, schedule: Q04DX002 (ip), vehicle: saline 102 % of control
